The values below come from patent US11028051B2, “Tetrahydroquinoline-based bromodomain inhibitors” (St. Jude Children's Research Hospital, priority 2016, dated 2021).

For orientation: EC50 means the midpoint of the concentration-response curve.

Test in all cases: competitive TR-FRET assay, BET-BD with acetylated peptide ligand
Assay type in all cases: binding
(In TR-FRET formats the signal depends on donor and acceptor labels being close together.)

The target of experiment [1] is BRD4-BD1 (Homo sapiens (Human), UniProt O60885). To be noted: BRD4-BD1; Table 11 additional modifications; read-out: 4.1 EC50. The protocol:
(§1) Inhibitor potency was determined using a competitive TR-FRET assay as detailed herein, measuring interaction of the respective BET-BD with an acetylated peptide ligand (Table 2).

The target of experiment [2] is BRD2-BD2 (Homo sapiens (Human), UniProt P25440). To be noted: for EC50: BRD2-BD2, Table 11 additional modifications, read-out: 2.2 EC50; for 2.1/2.2: ratio of BRD2-BD1 EC50 to BRD2-BD2 EC50 (selectivity). As for the experimental part:
as §1

In experiment [3] the target is BRD3-BD1 (Homo sapiens (Human), UniProt Q15059). To be noted: BRD3-BD1; Table 11 additional modifications; read-out: 3.1 EC50. The protocol: as §1
Experiment [4] deals with BRD2-BD1 (Homo sapiens (Human), UniProt P25440). The conditions noted are these: BRD2-BD1; Table 11 additional modifications; read-out: 2.1 EC50. The protocol:
as §1

Experiment [5] concerns the target BRDT (Homo sapiens, UniProt Q58F21). The conditions noted are these: BRDT; Table 11 additional modifications; read-out: BRDT EC50. The protocol:
as §1

Sequence of BRD2-BD2 (P25440 344-453): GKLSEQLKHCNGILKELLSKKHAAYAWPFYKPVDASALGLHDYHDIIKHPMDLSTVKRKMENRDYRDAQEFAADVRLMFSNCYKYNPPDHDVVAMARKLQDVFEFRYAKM
Sequence of BRD2-BD1 (P25440 74-180): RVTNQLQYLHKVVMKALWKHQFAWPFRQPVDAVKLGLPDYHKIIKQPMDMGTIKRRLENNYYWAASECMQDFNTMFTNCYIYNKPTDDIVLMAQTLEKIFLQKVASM
Sequence of BRD3-BD1 (Q15059 34-140): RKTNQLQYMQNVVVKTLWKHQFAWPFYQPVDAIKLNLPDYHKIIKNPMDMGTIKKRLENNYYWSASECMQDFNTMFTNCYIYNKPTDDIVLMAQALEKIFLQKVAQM

Turning to `CC(=O)Nc1cccc(-c2ccc3c(c2)[C@H](Nc2ccc(CN)cc2)C[C@H](C)N3C(C)=O)c1` [compound 26], the EC50 in experiment [1] is 1100 nM; in experiment [2], 23 nM; in experiment [3], 78 nM; in experiment [4], 470 nM; in experiment [5], more than 36000 nM. For the same compound, in experiment [2], the 2.1/2.2 was 20.

`CC(=O)Nc1cccc(-c2ccc3c(c2)[C@H](Nc2ccc(-c4nnn(C)n4)cc2)C[C@H](C)N3C(C)=O)c1` [compound 27]: the EC50 in experiment [1] came to 2100 nM; in experiment [2], 35 nM; in experiment [3] it was 310 nM; in experiment [4] it was 220 nM; in experiment [5], 660 nM. Moreover, the 2.1/2.2 in experiment [2] worked out at 6.3.

As to `CC(=O)Nc1cccc(-c2ccc3c(c2)[C@H](Nc2ccc(-c4nnnn4C)cc2)C[C@H](C)N3C(C)=O)c1` [compound 28], the EC50 is more than 52000 nM in experiment [1]; 10 nM in experiment [2]; more than 52000 nM in experiment [3]; more than 52000 nM in experiment [4]; more than 52000 nM in experiment [5].

Turning to `CC(=O)Nc1cccc(-c2ccc3c(c2)[C@H](Nc2ccc(C#N)cc2)C[C@H](C)N3C(C)=O)c1` [compound 29], the EC50 amounted to 1200 nM in experiment [1]; 8 nM in experiment [2]; 260 nM in experiment [3]; 460 nM in experiment [4]; 300 nM in experiment [5]. In experiment [2], the 2.1/2.2 was found to be 58.

Turning to `CC(=O)Nc1cccc(-c2ccc3c(c2)[C@H](Nc2ccc(C(=O)CO)cc2)C[C@H](C)N3C(C)=O)c1` [compound 30], the EC50 is more than 70000 nM in experiment [1]; 20 nM in experiment [2]; 9800 nM in experiment [3]; 2900 nM in experiment [4]; 4800 nM in experiment [5]. Besides, the 2.1/2.2 in experiment [2] is reported as 145.

For the compound `CC(=O)Nc1cccc(-c2ccc3c(c2)[C@H](Nc2cccc4ncccc24)C[C@H](C)N3C(C)=O)c1` [compound 31], the EC50 in experiment [1] stood at 590 nM; in experiment [2], 20 nM; in experiment [3] it was 290 nM; in experiment [4] it was 880 nM; in experiment [5], 1200 nM. The 2.1/2.2 in experiment [2] turned out to be 44.

Regarding `CC(=O)Nc1cccc(-c2ccc3c(c2)[C@H](Nc2cccc4ccccc24)C[C@H](C)N3C(C)=O)c1` [compound 32], the EC50 in experiment [1], in experiment [2], in experiment [3], in experiment [4] and in experiment [5] was more than 23000 nM in each case.

Consider `CC(=O)Nc1cccc(-c2ccc3c(c2)[C@H](Nc2cccc4cccnc24)C[C@H](C)N3C(C)=O)c1` [compound 33], for which the EC50 is more than 4900 nM in experiment [1]; 10000 nM in experiment [2]; more than 4900 nM in experiment [3]; more than 4900 nM in experiment [4]; more than 4900 nM in experiment [5].

Turning to `CC(=O)Nc1cccc(-c2ccc3c(c2)[C@H](Nc2ccc(-c4nnco4)cc2)C[C@H](C)N3C(C)=O)c1` [compound 34], the concentration for a half-maximal effect (EC50) in experiment [1] is 5100 nM; in experiment [2], 20 nM; in experiment [3], 510 nM; in experiment [4], 410 nM; in experiment [5], 890 nM. In experiment [2], the 2.1/2.2 is reported as 21.

On to `CC(=O)Nc1cccc(-c2ccc3c(c2)[C@H](Nc2ccc(-c4nnc(C)o4)cc2)C[C@H](C)N3C(C)=O)c1` [compound 35], for which the EC50 in experiment [1] came out at 2500 nM; in experiment [2], 12 nM; in experiment [3], 130 nM; in experiment [4] it was 80 nM; in experiment [5] it was 140 nM. Besides, the 2.1/2.2 in experiment [2] amounted to 6.7.

Take `CC(=O)N1c2ccc(-c3cccc(NS(C)(=O)=O)c3)cc2[C@H](NC(=O)OC(C)C)C[C@@H]1C` [compound 93]: the EC50 in experiment [1] came out at 380 nM; in experiment [2] it was 120 nM; in experiment [3], 150 nM; in experiment [4] it was 580 nM; in experiment [5], 1200 nM. For the same compound, in experiment [2], the 2.1/2.2 turned out to be 4.6.

Regarding `CC(=O)N1c2ccc(-c3cccc(NC(=O)C4CC4)c3)cc2[C@H](NC(=O)OC(C)C)C[C@@H]1C` [compound 94], the EC50 in experiment [1] worked out at 1400 nM; in experiment [2] it was 170 nM; in experiment [3], 430 nM; in experiment [4], 2000 nM; in experiment [5] it was 84000 nM. Moreover, in experiment [2], the 2.1/2.2 stood at 1.2.

For the compound `CC(=O)N1c2ccc(-c3cccc(NC(=O)c4ccc(C)cc4)c3)cc2[C@H](NC(=O)OC(C)C)C[C@@H]1C` [compound 95], the EC50 in experiment [1] is 2000 nM; in experiment [2] it was 420 nM; in experiment [3], 380 nM; in experiment [4], 3100 nM; in experiment [5] it was 510 nM. In experiment [2], the 2.1/2.2 turned out to be 1.2.

Consider `COC(=O)c1ccc(N[C@@H]2C[C@H](C)N(C(C)=O)c3ccc(-c4cccc(NCCC(C)C)c4)cc32)cc1` [compound 142], for which the EC50 turned out to be 230 nM in experiment [2], 2500 nM in experiment [3], 2500 nM in experiment [4] and 8300 nM in experiment [5]. The 2.1/2.2 in experiment [2] came to 52.

For `CCCCN(CCCC)c1cccc(-c2ccc3c(c2)[C@H](Nc2ccc(C(=O)OC)cc2)C[C@H](C)N3C(C)=O)c1` [compound 143], the EC50 was 1100 nM in experiment [2], 11000 nM in experiment [3], 8000 nM in experiment [4] and 34000 nM in experiment [5]. For the same compound, the 2.1/2.2 in experiment [2] came to 93.

For `COC(=O)c1ccc(N[C@@H]2C[C@H](C)N(C(C)=O)c3ccc(-c4ccnn4C)cc32)cc1` [compound 144], the EC50 in experiment [2] stood at 290 nM; in experiment [3], 3100 nM; in experiment [4] it was 3800 nM; in experiment [5] it was 15000 nM. The 2.1/2.2 in experiment [2] worked out at 7.0.

`CC(=O)N1c2ccc(-c3ccnn3C)cc2[C@H](Nc2ccccc2OC(F)(F)F)C[C@@H]1C` [compound 145]: the EC50 in experiment [2] is 390 nM; in experiment [3] it was 21000 nM; in experiment [4] it was 19000 nM; in experiment [5], more than 58000 nM. Further, the 2.1/2.2 in experiment [2] stood at 5.0.

Take `CCCCN(CCCC)c1cccc(-c2ccc3c(c2)[C@H](Nc2ccccc2OC(F)(F)F)C[C@H](C)N3C(C)=O)c1` [compound 146]: the EC50 in experiment [2] was 9600 nM; in experiment [3] it was more than 78000 nM; in experiment [4], 78000 nM; in experiment [5] it was more than 78000 nM. For the same compound, the 2.1/2.2 in experiment [2] stood at 22.

Consider `COc1cccc(-c2ccc3c(c2)[C@H](Nc2ccc(Cl)cc2)C[C@H](C)N3C(C)=O)c1` [compound 147], for which the EC50 stood at 1600 nM in experiment [2], 9400 nM in experiment [3], 7200 nM in experiment [4] and 17000 nM in experiment [5]. For the same compound, the 2.1/2.2 in experiment [2] amounted to 7.4.

Consider `CC(=O)N1c2ccc(-c3cccc(N(CCC(C)C)CCC(C)C)c3)cc2[C@H](Nc2ccccc2OC(F)(F)F)C[C@@H]1C` [compound 148], for which the EC50 was 34000 nM in experiment [2], more than 90000 nM in experiment [3], 90000 nM in experiment [4] and more than 90000 nM in experiment [5]. Moreover, in experiment [2], the 2.1/2.2 was found to be 16.

As to `CC(=O)N(C)c1cccc(-c2ccc3c(c2)[C@H](Nc2ccc(Cl)cc2)C[C@H](C)N3C(C)=O)c1` [compound 149], the EC50 was 140 nM in experiment [2], 1000 nM in experiment [3], 1300 nM in experiment [4] and 3600 nM in experiment [5]. Besides, the 2.1/2.2 in experiment [2] was 10.

For `CCCCCN(CCCCC)c1cccc(-c2ccc3c(c2)[C@H](Nc2ccccc2OC(F)(F)F)C[C@H](C)N3C(C)=O)c1` [compound 150], the EC50 in experiment [2] was 22000 nM; in experiment [3] it was more than 72000 nM; in experiment [4] it was 72000 nM; in experiment [5], more than 72000 nM. Also, in experiment [2], the 2.1/2.2 is listed as 13.

As for `CC(=O)N1c2ccc(-c3cccc(NCC4CCOC4)c3)cc2[C@H](Nc2ccccc2OC(F)(F)F)C[C@@H]1C` (stereo partly shown) [compound 151], the EC50 was found to be 670 nM in experiment [2], 8300 nM in experiment [3], 14000 nM in experiment [4] and 26000 nM in experiment [5]. The 2.1/2.2 in experiment [2] is reported as 49.

Take `CC(=O)N1c2ccc(-c3cccc(N(CC4CC4)CC4CC4)c3)cc2[C@H](Nc2ccccc2OC(F)(F)F)C[C@@H]1C` [compound 152]: the EC50 in experiment [2] is 8400 nM; in experiment [3], 78000 nM; in experiment [4], 79000 nM; in experiment [5], more than 79000 nM.

In the case of `CC(=O)N1c2ccc(-c3cccc(NCCC(F)(F)F)c3)cc2[C@H](Nc2ccccc2OC(F)(F)F)C[C@@H]1C` [compound 153], the EC50 in experiment [2] was 1700 nM; in experiment [3], 39000 nM; in experiment [4], 90000 nM; in experiment [5], more than 90000 nM. In experiment [2], the 2.1/2.2 came to 8.2.

Take `CC(=O)N1c2ccc(-c3cccc(NC4CCCC4)c3)cc2[C@H](Nc2ccccc2OC(F)(F)F)C[C@@H]1C` [compound 154]: the 50% effective concentration (EC50) in experiment [2] was 1800 nM; in experiment [3], 27000 nM; in experiment [4] it was 20000 nM; in experiment [5], more than 84000 nM. Moreover, the 2.1/2.2 in experiment [2] came to 4.6.

For the compound `CCCN(CCC)c1cccc(-c2ccc3c(c2)[C@H](Nc2ccccc2OC(F)(F)F)C[C@H](C)N3C(C)=O)c1` [compound 155], the EC50 is 5700 nM in experiment [2], 79000 nM in experiment [3], 17000 nM in experiment [4] and more than 84000 nM in experiment [5]. For the same compound, in experiment [2], the 2.1/2.2 is given as 2.6.

Regarding `COc1cc(F)ccc1N[C@@H]1C[C@H](C)N(C(C)=O)c2ccc(-c3cccc(CNCC(F)(F)F)c3)cc21` [compound 169], the EC50 in experiment [1], in experiment [3], in experiment [4] and in experiment [5] was more than 30000 nM in each case.
